Bounds are passed on as bounds.

Broadly, the IC50 is the concentration at which inhibition is half-maximal.

The target in this test is T1, hNLRP3 (Homo sapiens, UniProt Q96P20).
T1 construct: THP-1 cells were purchased from the American Type Culture Collection; host or cells: THP-1 cells, PMA-differentiated, stimulated with gramicidin
T1 sequence (Q96P20 whole entry): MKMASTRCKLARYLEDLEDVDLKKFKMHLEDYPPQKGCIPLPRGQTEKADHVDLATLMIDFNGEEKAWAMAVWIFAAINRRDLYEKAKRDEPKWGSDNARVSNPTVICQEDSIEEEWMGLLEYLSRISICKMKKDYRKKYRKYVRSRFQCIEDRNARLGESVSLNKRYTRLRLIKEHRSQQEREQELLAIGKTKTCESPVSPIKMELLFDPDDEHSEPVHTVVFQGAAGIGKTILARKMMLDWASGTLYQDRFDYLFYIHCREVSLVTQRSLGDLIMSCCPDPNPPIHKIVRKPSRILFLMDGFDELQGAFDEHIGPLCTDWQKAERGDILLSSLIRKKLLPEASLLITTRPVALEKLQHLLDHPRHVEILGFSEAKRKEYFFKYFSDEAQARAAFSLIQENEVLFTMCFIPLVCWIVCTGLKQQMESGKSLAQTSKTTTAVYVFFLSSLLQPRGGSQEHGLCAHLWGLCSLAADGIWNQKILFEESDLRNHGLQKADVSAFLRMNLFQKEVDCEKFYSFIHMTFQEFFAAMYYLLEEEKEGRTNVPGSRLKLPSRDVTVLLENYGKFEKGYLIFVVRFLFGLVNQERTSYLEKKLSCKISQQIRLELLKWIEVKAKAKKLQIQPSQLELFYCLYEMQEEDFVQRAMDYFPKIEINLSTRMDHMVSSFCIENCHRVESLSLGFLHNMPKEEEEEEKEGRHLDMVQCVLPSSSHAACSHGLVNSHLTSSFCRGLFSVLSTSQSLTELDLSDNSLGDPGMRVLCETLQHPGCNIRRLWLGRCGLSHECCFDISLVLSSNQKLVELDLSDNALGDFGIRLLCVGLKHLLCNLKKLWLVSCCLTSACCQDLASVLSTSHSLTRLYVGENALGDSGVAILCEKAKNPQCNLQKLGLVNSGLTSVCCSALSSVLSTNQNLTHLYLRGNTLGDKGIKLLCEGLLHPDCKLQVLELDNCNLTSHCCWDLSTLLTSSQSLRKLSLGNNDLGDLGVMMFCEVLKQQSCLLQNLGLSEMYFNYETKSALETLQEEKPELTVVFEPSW
Kind of test: IL-1β production in PMA-differentiated THP-1 cells stimulated with gramicidin (hTHP-1 assay). Type of test: cell-based. The settings on record: read-out: NLRP3 Antagonist, hNLRP3 (THP-1, IL-1b) Normalized: GeoMean IC50. As to the method: Procedure 1: IL-1β Production in PMA-Differentiated THP-1 Cells Stimulated with Gramicidin.
THP-1 cells were purchased from the American Type Culture Collection and sub-cultured according to instructions from the supplier. […] Prior to the experiment, compounds were dissolved in dimethyl sulfoxide (DMSO) to generate a 30 mM stock. […] DMSO was backfilled in the plate to achieve a final DMSO assay concentration of 0.37%. The plate was then sealed and stored at room temperature until required.
THP-1 cells were treated with PMA (Phorbol 12-myristate 13-acetate) (20 ng/ml) for 16-18 hours. On the day of the experiment the media was removed and adherent cells were detached with trypsin for 5 minutes.
Procedure 2: IL-1β Production in PMA-Differentiated THP-1 Cells Stimulated with Gramicidin.
THP-1 cells were purchased from the American Type Culture Collection and sub-cultured according to instructions from the supplier. […] Prior to the experiment THP-1 were treated with PMA (Phorbol 12-myristate 13-acetate) (20 ng/ml) for 16-18 hours. Compounds were dissolved in dimethyl sulfoxide (DMSO) to generate a 30 mM stock. On the day of the experiment the media was removed and adherent cells were detached with trypsin for 5 minutes. […] Final DMSO concentration was at 0.37%. Cells were incubated with compounds for 1 hour and then stimulated with gramicidin (5 μM) (Enzo) for 2 hours. Plates were then centrifuged at 340 g for 5 min. Cell free supernatant (40 μL) was collected using a 96-channel PlateMaster (Gilson) and the production of IL-1β was evaluated by HTRF (cisbio).
1. Experimental procedure
1.2 Compound Preparation • Prepare the 3-fold serial dilution of the compounds with DMSO in a 384-well LDV Microplate using TECAN EVO system to generate the compound source plate with 10 concentrations. Top concentration is 30 mM. FIG. 5 depicts the layout of the microplate.
FIG. 5 depicts the layout of the plates: HC: 100 μM CRID3 (MCC950)+5 μM gramicidin LC: 5 μM Gramicidin.
1.5 IL-1β Detection • 1) Homogenize the 5× diluent #5 with a vortex and add 1 volume of stock solution in 4 volumes of distilled water. • 2) Thaw 20× stock solution of anti-IL1β-Cryptate-antibody and anti-IL1β XL-antibody. […] 2. Data Analysis: • 1.
Consider `CC(C)c1cc(F)cc(C(C)C)c1CC(=O)N=S1(=O)NC(=O)c2ccc(C(C)(C)O)cc21` (stereo not drawn) [Compound 109], for which the IC50 was over 30 µM.
Next, `O=C(N=S1(=O)NC(=O)c2ccccc21)Nc1c2c(cc3c1CCC3)CCC2` (single isomer, unassigned) [Compound 129b, 3-[(1S or 1R)-1,3-dioxo-2,3-dihydro-1-^λ-6,2-benzothiazol-1-ylidene]-1-(1,2,3,5,6,7-hexahydro-s-indacen-4-yl)urea]: 5 to 30 µM.
Turning to `O=C(N=S1(=O)NC(=O)c2ccccc21)Nc1c2c(cc3c1CCC3)CCC2` (single isomer, unassigned) [Compound 129a, 3-[(1R or 1S)-1,3-dioxo-2,3-dihydro-1-^λ-6,2-benzothiazol-1-ylidene]-1-(1,2,3,5,6,7-hexahydro-s-indacen-4-yl)urea], the concentration for half-maximal inhibition (IC50) lay within 0.2 to 1 µM.
Next, `CN(C)Cc1ccc2c(c1)S(=O)(=NC(=O)Nc1c3c(cc4c1CCC4)CCC3)NC2` (single isomer, unassigned) [Compound 133b, (S or R)-1-(6-((dimethylamino)methyl)-1-oxido-2,3-dihydro-1l4-benzo[d]isothiazol-1-ylidene)-3-(1,2,3,5,6,7-hexahydro-s-indacen-4-yl)urea]: over 30 µM; `O=C(N=S1(=O)NC(=O)c2ccc(-n3cccn3)cc21)Nc1c2c(cc3c1CCC3)CCC2` (single isomer, unassigned) [Compound 211b, (R or S)-1-(1,2,3,5,6,7-hexahydro-s-indacen-4-yl)-3-(1-oxido-3-oxo-6-(1H-pyrazol-1-yl)-2,3-dihydro-1l4-benzo[d]isothiazol-1-ylidene)urea]: over 30 µM.
Next, `CC(C)(O)c1ccc2c(c1)S(=O)(=NC(=O)Nc1c3c(nc4c1CCC4)CCC3)NC2=O` (stereo not drawn) [Compound 117]: 1 to 5 µM; `CC(C)(O)c1ccc2c(c1)S(=O)(=NC(=O)Nc1c3c(cc4c1CC4)CCC3)NC2=O` (single isomer, unassigned) [Compound 112b, (S or R)-1-(6-(2-hydroxypropan-2-yl)-1-oxido-3-oxo-2,3-dihydro-1l4-benzo[d]isothiazol-1-ylidene)-3-(2,4,5,6-tetrahydro-1H-cyclobuta[f]inden-3-yl)urea]: 1 to 5 µM.
The figure for `CC(C)(O)c1ccc2c(c1)C(=O)NS2(=O)=NC(=O)Nc1c2c(cc3c1CCC3)CCC2` (single isomer, unassigned) [Compound 121b, (S or R)-1-(1,2,3,5,6,7-hexahydro-s-indacen-4-yl)-3-(5-(2-hydroxypropan-2-yl)-1-oxido-3-oxo-2,3-dihydro-1l4-benzo[d]isothiazol-1-ylidene)urea] is 5 to 30 µM.
Turning to `CC(C)(O)c1ccc2c(c1)S(=O)(=NC(=O)Nc1c3c(cc4c1CCC4)CCC3)NC2=O` (single isomer, unassigned) [Compound 127b, (S or R)-1-(1,2,3,5,6,7-hexahydro-s-indacen-4-yl)-3-(6-(2-hydroxypropan-2-yl)-1-oxido-3-oxo-2,3-dihydro-1l4-benzo[d]isothiazol-1-ylidene)urea], the IC50 was 5 to 30 µM.
Take `CC(C)(O)c1ccc2c(c1)C(=O)NS2(=O)=NC(=O)Nc1c2c(cc3c1CCC3)CCC2` (stereo not drawn) [Compound 121, 1-(1,2,3,5,6,7-hexahydro-s-indacen-4-yl)-3-(5-(2-hydroxypropan-2-yl)-1-oxido-3-oxo-2,3-dihydro-1l4-benzo[d]isothiazol-1-ylidene)urea]: the IC50 lay in the range of 0.2 to 1 µM.
The figure for `CC(C)(O)c1ccc2c(c1)S(=O)(=NC(=O)Nc1c3c(cc4c1CCC4)CCC3)NC2=O` (racemic) [Compound 127, 1-(1,2,3,5,6,7-hexahydro-s-indacen-4-yl)-3-[6-(2-hydroxypropan-2-yl)-1,3-dioxo-2,3-dihydro-1-^λ-6,2-benzothiazol-1-ylidene]urea] is 0.2 to 1 µM; for `O=C(N=S1(=O)NC(=O)c2cccnc21)Nc1c2c(cc3c1CCC3)CCC2` (single isomer, unassigned) [Compound 223b, (R or S)-1-(1,2,3,5,6,7-hexahydro-s-indacen-4-yl)-3-(1-oxido-3-oxo-2,3-dihydro-1l4-isothiazolo[5,4-b]pyridin-1-ylidene)urea] it is 5 to 30 µM; for `O=C(N=S1(=O)CC2(CN1)COC2)Nc1c2c(cc3c1CCC3)CCC2` (stereo not drawn) [Compound 139b] it is over 30 µM.
The figure for `CC(C)(O)c1ccc2c(c1)S(=O)(=NC(=O)Nc1c3c(cc4c1CCC4)CCC3)NC2=O` (single isomer, unassigned) [Compound 127a, (R or S)-1-(1,2,3,5,6,7-hexahydro-s-indacen-4-yl)-3-(6-(2-hydroxypropan-2-yl)-1-oxido-3-oxo-2,3-dihydro-1l4-benzo[d]isothiazol-1-ylidene)urea] is 0.04 to 0.2 µM; for `CN(C)Cc1ccc2c(c1)S(=O)(=NC(=O)Nc1c3c(cc4c1CCC4)CCC3)NC2` (stereo not drawn) [Compound 133, 1-(6-((dimethylamino)methyl)-1-oxido-2,3-dihydro-1l4-benzo[d]isothiazol-1-ylidene)-3-(1,2,3,5,6,7-hexahydro-s-indacen-4-yl)urea] it is 5 to 30 µM.
The figure for `CC(C)(O)c1ccc2c(c1)S(=O)(=NC(=O)Cc1cc3c(c4c1CCC4)CCC3)NC2=O` (stereo not drawn) [Compound 114, 2-(1,2,3,6,7,8-hexahydro-as-indacen-4-yl)-N-(6-(2-hydroxypropan-2-yl)-1-oxido-3-oxo-2,3-dihydro-1l4-benzo[d]isothiazol-1-ylidene)acetamide] is over 30 µM; for `CC(C)(O)c1ccc2c(c1)S(=O)(=NC(=O)Nc1c3c(nc(C4CC4)c1C1CC1)CCC3)NC2=O` (single isomer, unassigned) [Compound 106b, 1(S or R)-1-(2,3-dicyclopropyl-6,7-dihydro-5H-cyclopenta[b]pyridin-4-yl)-3-(6-(2-hydroxypropan-2-yl)-1-oxido-3-oxo-2,3-dihydro-1l4-benzo[d]isothiazol-1-ylidene)urea] it is over 30 µM.
In the case of `CC(O)(CO)c1ccc2c(c1)S(=O)(=NC(=O)Nc1c3c(cc4c1CCC4)CCC3)NC2=O` (stereo not drawn) [Compound 208, 1-(6-(1,2-dihydroxypropan-2-yl)-1-oxido-3-oxo-2,3-dihydro-1l4-benzo[d]isothiazol-1-ylidene)-3-(1,2,3,5,6,7-hexahydro-s-indacen-4-yl)urea], the half-maximal inhibitory concentration (IC50) fell in the range of 0.04 to 0.2 µM.
The figure for `CC1(C)CS(=O)(=NC(=O)Nc2c3c(cc4c2CCC4)CCC3)NC1=O` (single isomer, unassigned) [Compound 102a, (S or R)-1-(4,4-dimethyl-1-oxido-3-oxo-1l6-isothiazolidin-1-ylidene)-3-(1,2,3,5,6,7-hexahydro-s-indacen-4-yl)urea] is 0.2 to 1 µM.
The figure for `Cc1c(C2CC2)nc2c(c1NC(=O)N=S1(=O)NC(=O)c3ccc(C(C)(C)O)cc31)CCC2` (single isomer, unassigned) [Compound 138, (S or R)-1-(2-cyclopropyl-3-methyl-6,7-dihydro-5H-cyclopenta[b]pyridin-4-yl)-3-(6-(2-hydroxypropan-2-yl)-1-oxido-3-oxo-2,3-dihydro-1l4-benzo[d]isothiazol-1-ylidene)urea] is 0.2 to 1 µM; for `CN(C)Cc1ccc2c(c1)CNS2(=O)=NC(=O)Nc1c2c(cc3c1CCC3)CCC2` (stereo not drawn) [Compound 122, 1-{5-[(dimethylamino)methyl]-1-oxo-2,3-dihydro-1$l6,2-benzothiazol-1-ylidene}-3-(1,2,3,5,6,7-hexahydro-s-indacen-4-yl)urea] it is 5 to 30 µM.

Source of the values: US12134611B2, “Compounds and compositions for treating conditions associated with NLRP activity” (Novartis AG, priority 2018, dated 2024).
